Experimental data taken from patent US6596863B2, “Medical composition containing nitroetheneamine Derivative or salt there of as active constituent” (Ishihara Sangyo Kaisha, Ltd., priority 1998, dated 2003).
Marks after values point to notes of the source that are not given here.

Legend:
[1] = tested on: CPAE cells (bovine pulmonary-derived vascular endothelical cells); assay: Inhibitory action against capillary-like tube formation of vascular endothelial cells, three dimensional collagen gel culture; format: cell-based; settings: for Number of networks Average ± SD: n = 5, Day 4
Method: With reference to the method disclosed in a literature (Hayashi, J. N. et al, Virchows arch. (B), Vol. 60,245-252, 1991, Lee, D. Y. et al, Life Science, Vol. 60, 127-134, 1997), evaluation was carried out by the following method.
7 Parts by volume of type I-a collagen (manufactured by Nitta Gelatin K. K.) and 2 parts by volume of Dulbecco's Modified Eagle Medium (concentration: 5 times, containing no NaHCO3; No. D-5648, manufactured by Sigma Co.) were thoroughly mixed under cooling with ice, and then one part by volume of a collagen gel-reconstructing buffer solution (2.2% NaHCO3/0.2M HEPES/0.05N NaOH) was added thereto. To withdraw bubbles, centrifugal separation and supersonic treatment were carried out, and then 400 μl of the gel was introduced into 24 well multi-well plate (Code 3047, manufactured by Falcon Co.) and incubated at 37° C. for about 10 minutes for gelation.
On the gelled collagen, CPAE cells (bovine pulmonary-derived vascular endothelical cells; ATCC CCL209, purchased from Dainippon Seiyaku K. K.) was inoculated in a concentration of 4×10^4 cells/400 μl/well (Day 0). Thereafter the cells were cultured overnight at 37° C. in a 5% CO2 incubator. Next day (Day 1), after confirming that the cells were normally proliferating, the culture solution was removed by aspiration, and a fresh collagen gel (prepared in the same manner as the above layer) was overlaid in an amount of 200 μl/well and gelled.
On the gel, the test materials dissolved in 10% fetal bovine serum-containing Dulbecco's Modified Eagle Medium (No. D-5648, manufactured by Sigma Co.) (prepared to have a concentration four times the final concentration) was added in an amount of 200 μl, and culturing was continued under the same conditions. Upon expiration of three days from stratification (Day 4), capillary-like tube formation was observed by a microscope, and an optional field of view was photographed with 100 magnifications, whereupon the number of capillary-like structures formed (the number of networks) were visually counted with reference to the method disclosed in a literature by Yeong, H. et al (Cancer Research, Vol. 56, 2428-2433, 1996). For each test sample, 2 well treatment was carried out, and a total of five fields of view were photographed for evaluation.

[2] = tested on: Colon 26/AD cells (mouse colon cancer); format: in vivo
Method: Colon 26 mouse colon cancer cells (obtained from Cancer Chemotherapy Center Foundation for Cancer Research) were transplanted subcutaneously to BALB/c mouse, 10 days later, the grown tumor was taken out. It was hashed in a Hanks equilibrium salt solution and passed through a metal mesh to obtain single cells, which were cultured in vitro (37° C., 5% CO2) (using 10% fetal bovine serum-containing Dulbecco's Modified Eagle Medium (D-5648, manufactured by Sigma Co.)). […] The same cell strain always produced and secreted MMP-2 in the supernatant of the in vitro culture, but when cultured by an addition of TNF-α (50 ng/ml) in the culture solution, it produced MMP-9 remarkably.
With reference to the method by Tsuruo et al (Japanese Journal of Cancer Research (Gann), Vol. 75, 193-198, 1984), the inhibition effects against experimental lung metastasis were evaluated. Namely, 3×10^4 Colon 26/AD cells (suspended in 0.2 ml of Minimum Essential Medium (manufactured by Nissui Seiyaku K. K.)) cultured in vitro were transplanted through the tail vein of a male BALB/c AnNCrj mouse (purchased from Charles River Japan, Inc.) of 6 weeks old (Day 0). In the case of Compound No. 37, it was suspended in a 1% Tween 80/physiological sodium chloride aqueous solution and intraperitoneally administered (administered in a volume of 10 ml/kg) immediately (within 5 minutes) before transplantation of the cells, 2 hours later and once per day on Day 1-4 and Day 7-11 (a total of 11 times). Further, in the case of Compound No. 157, it was dissolved in 100 mM Tris-HCl (pH 8.5)/150 mM NaCl and forcibly orally administered (administered in a volume of 10 ml/kg) by means of a metal sonde 30 minutes before transplantation of the cells, in the morning and evening of Day 1 and once per day on Day 2-4, Day 7-11 and Day 14 (a total of 12 times). To the vehicle control group, the respective solvents containing no test materials, were administered in the same manner. On Day 14 or Day 15, the lung of each mouse was taken out, and the weight was measured, and the metastatis inhibition rate was calculated in accordance with the following formula. [formula]
A is the weight of lung of the treated group
B is the average weight of lung of the normal group
C is the average weight of lung of the solvent control group.

[3] = tested on: mouse arthritis model induced by a single immunization with collagen; assay: Mouse arthritis model induced by a single immunization with collagen; format: in vivo
Method: With reference to the method by Kato, F. et al (Annals of the Rheumatic Diseases, Vol. 55, 535-539, 1996), a bovine type II collagen (K-41, manufactured by collagen Gijutsu Kenkyukai) solution (3 mg/ml) dissolved in 0.05N acetic acid and Freund's complete adjuvant (Freund, Adjuvant Complete; No. F5506, manufactured by Sigma Co.) were mixed in equal amounts and subjected to ultrasonic treatment (under cooling with ice, 20 seconds×3 times) to obtain a uniform emulsion.
0.1 ml (150 μg) of the antigen prepared as described above, was administered to the tail head skin of a female DBA/1JNCrj mouse of 5 weeks old (purchased from Charles River Japan, Inc.) (Day 0). After 2 weeks from sensitization (Day 14), Compound No. 164 (50 mg/kg) suspended in a 1% Tween 80/physiological sodium chloride aqueous solution was intraperitoneally administered (administered in a volume of 10 ml/kg) once a day continuously for 5 weeks. To the vehicle control group, the 1% Tween 80/physiological sodium chloride aqueous solution was administered in the same manner.
Sideration of arthritis was observed once a week from Day 1 in accordance with the following evaluation standards disclosed in a literature of Kato, F. et al (Annals of the Rheumatic Diseases, Vol. 55, 535-539, 1996) with respect to Knuckle joints of the respective four limbs.

Row | Compound | Inhibition ratio (%) against capillary-like tube formation ([1]; 0.1 μM) | Number of networks Average ± SD ([1]; 0.1 μM) | Inhibition ratio (%) against capillary-like tube formation ([1]; 1 μM) | Number of networks Average ± SD ([1]; 1 μM) | Inhibition ratio (%) against capillary-like tube formation ([1]; 10 μM) | Number of networks Average ± SD ([1]; 10 μM) | Inhibition ratio (%) against capillary-like tube formation ([1]; 100 μM) | Number of networks Average ± SD ([1]; 100 μM) | Metastatis inhibition ratio (%) ([2]; 10 mg/kg × 11 times (head), oral, Day 15) | Lung weight increase (g) against normal mouse ([2]; 10 mg/kg × 11 times (head), oral, Day 15, vehicle control 0.183 ± 0.11) | Weight of lung (g) (Day 15) ([2]; 10 mg/kg × 11 times (head), oral, Day 15, vehicle control 0.364, normal mouse 0.181) | inhibition ratio of experimental metastasis of Colon 26/AD to lung ([2]; 10 mg/kg, oral administration, total of 12 times, male BALB/c mouse, from lung weight) | sideration of arthritis compared with the control group ([3]; 50 mg/kg intraperitoneal everyday from Day 14 for 5 weeks, female DBA/1J mouse, p<0.01, Wilcoxon ranking test) | toxicity / body weight increase by observation of general findings ([3]; 50 mg/kg intraperitoneal everyday, during the test period) | Sideration ratio of arthritis (number of diseased animals/number of tested animals) ([3]; Day 14 (initial of administration of drug), 50 mg/kg intraperitoneal, vehicle control 0/8) | Sideration ratio of arthritis (number of diseased animals/number of tested animals) ([3]; Day 21, 50 mg/kg intraperitoneal once a day, vehicle control 2/8) | Sideration ratio of arthritis (number of diseased animals/number of tested animals) ([3]; Day 28, 50 mg/kg intraperitoneal once a day, vehicle control 7/8) | Sideration ratio of arthritis (number of diseased animals/number of tested animals) ([3]; Day 35, 50 mg/kg intraperitoneal once a day, vehicle control 8/8) | Sideration ratio of arthritis (number of diseased animals/number of tested animals) ([3]; Day 42, 50 mg/kg intraperitoneal once a day, vehicle control 8/8) | Sideration ratio of arthritis (number of diseased animals/number of tested animals) ([3]; Day 49, 50 mg/kg intraperitoneal once a day, vehicle control 8/8)
1 | CCOCCOc1cc(C(F)(F)F)cc(NNC(=C[N+](=O)[O-])NC)n1 [Compound No. 107] | 35* % | 20.0 ± 5.7 | 41* % | 18.2 ± 1.6 | 62* % | 11.8 ± 5.0 | 93* % | 2.0 ± 2.8 |  |  |  |  |  |  |  |  |  |  |  | 
2 | CS(=O)(=O)NC(=C[N+](=O)[O-])NNc1cc(C(F)(F)F)cc(Cl)n1 [Compound No. 157, N-(1-(6-chloro-4-trifluoromethyl-2-pyridyl)hydrazino-2-nitroethenyl)methanesulfonamide] |  |  |  |  |  |  |  |  | 59.5%* | 0.070 ± 0.08 g | 0.257 g | 59.5% |  |  |  |  |  |  |  | 
3 | CCOCCOc1cc(C(F)(F)F)cc(NNC(=C[N+](=O)[O-])NS(C)(=O)=O)n1 [Compound No. 164, N-(1-(6-(2-ethoxyethoxy)-4-trifluoromethyl-2-pyridyl)hydrazino-2-nitroethenyl)methanesulfonamide] | 23% | 23.6 ± 3.2 | 44* % | 17.2 ± 4.1 | 44* % | 17.2 ± 6.0 | 66* % | 10.4 ± 5.7 |  |  |  |  | significantly delayed | no distinct toxicity or inhibition against the body weight increase | 0/8 | 0/8 | 2/8 | 6/8 | 7/8 | 7/8
